Data: US11019818B2, “Herbicidal 3-substituted lactams” (FMC Corporation, priority 2017, dated 2021)

Legend:
Assay type in all cases: in vivo
[1] = system: pigweed (Amaranthus retroflexus); experiment: Test A postemergence, pigweed; conditions: 0 to 100 scale (0 no effect, 100 complete control), approx. 10 d
Excerpt: (§1) Seeds of plant species selected from barnyardgrass (Echinochloa crus-galli), kochia (Kochia scoparia), ragweed (common ragweed, Ambrosia elatior), ryegrass, Italian (Italian ryegrass, Lolium multiflorum), foxtail, green (green foxtail, Setaria viridis), and pigweed (Amaranthus retroflexus) were planted into a blend of loam soil and sand and treated preemergence with a directed soil spray using test chemicals formulated in a non-phytotoxic solvent mixture which included a surfactant. At the same time, plants selected from these weed species and also wheat (Triticum aestivum), corn (Zea mays), blackgrass (Alopecurus myosuroides), and galium (catchweed bedstraw, Galium aparine) were planted in pots containing the same blend of loam soil and sand and treated with postemergence applications of test chemicals formulated in the same manner. Plants ranged in height from 2 to 10 cm and were in the one- to two-leaf stage for the postemergence treatment. Treated plants and untreated controls were maintained in a greenhouse for approximately 10 d, after which time all treated plants were compared to untreated controls and visually evaluated for injury. Plant response ratings, summarized in Table A, are based on a 0 to 100 scale where 0 is no effect and 100 is complete control. A dash (-) response means no test result.

[2] = system: barnyardgrass (Echinochloa crus-galli); experiment: Test A preemergence, barnyardgrass; conditions: 0 to 100 scale (0 no effect, 100 complete control), approx. 10 d
Excerpt: as §1

kochia (Kochia scoparia) [3] = experiment: Test A preemergence, kochia; conditions: 0 to 100 scale (0 no effect, 100 complete control), approx. 10 d
Excerpt: as §1

corn (Zea mays) = experiment: Test A postemergence, corn; conditions: 0 to 100 scale (0 no effect, 100 complete control), approx. 10 d
Excerpt: as §1

[4] = system: ryegrass, Italian (Italian ryegrass, Lolium multiflorum); experiment: Test A preemergence, Italian ryegrass; conditions: 0 to 100 scale (0 no effect, 100 complete control), approx. 10 d
Excerpt: as §1

[5] = system: barnyardgrass (Echinochloa crus-galli); experiment: Test A postemergence, barnyardgrass; conditions: 0 to 100 scale (0 no effect, 100 complete control), approx. 10 d
Excerpt: as §1

kochia (Kochia scoparia) [6] = experiment: Test A postemergence, kochia; conditions: 0 to 100 scale (0 no effect, 100 complete control), approx. 10 d
Excerpt: as §1

[7] = system: barnyardgrass (Echinochloa crus-galli); experiment: Test B flooded paddy test, barnyardgrass; conditions: Flood, 250 g ai/ha; applied to paddy water at 2-leaf stage; visual rating after 13 to 15 d; scale 0 to 100, 0 is no effect, 100 is complete control
Description: (§2) Plant species in the flooded paddy test selected from rice (Oryza sativa), sedge, umbrella (small-flower umbrella sedge, Cyperus difformis), ducksalad (Heteranthera limosa), and barnyardgrass (Echinochloa crus-galli) were grown to the 2-leaf stage for testing. At time of treatment, test pots were flooded to 3 cm above the soil surface, treated by application of test compounds directly to the paddy water, and then maintained at that water depth for the duration of the test. Treated plants and controls were maintained in a greenhouse for 13 to 15 d, after which time all species were compared to controls and visually evaluated. Plant response ratings, summarized in Table B, are based on a scale of 0 to 100 where 0 is no effect and 100 is complete control. A dash (-) response means no test result.

[8] = system: foxtail, green (green foxtail, Setaria viridis); experiment: Test A postemergence, green foxtail; conditions: 0 to 100 scale (0 no effect, 100 complete control), approx. 10 d
Excerpt: as §1

[9] = system: foxtail, green (green foxtail, Setaria viridis); experiment: Test A preemergence, green foxtail; conditions: 0 to 100 scale (0 no effect, 100 complete control), approx. 10 d
Excerpt: as §1

[10] = system: blackgrass (Alopecurus myosuroides); experiment: Test A postemergence, blackgrass; conditions: 0 to 100 scale (0 no effect, 100 complete control), approx. 10 d
Excerpt: as §1

rice (Oryza sativa) = experiment: Test B flooded paddy test, rice; conditions: Flood, 250 g ai/ha; applied to paddy water at 2-leaf stage; visual rating after 13 to 15 d; scale 0 to 100, 0 is no effect, 100 is complete control
Description: as §2

[11] = system: ducksalad (Heteranthera limosa); experiment: Test B flooded paddy test, ducksalad; conditions: Flood, 250 g ai/ha; applied to paddy water at 2-leaf stage; visual rating after 13 to 15 d; scale 0 to 100, 0 is no effect, 100 is complete control
Description: as §2

[12] = system: ragweed (common ragweed, Ambrosia elatior); experiment: Test A preemergence, ragweed; conditions: 0 to 100 scale (0 no effect, 100 complete control), approx. 10 d
Excerpt: as §1

[13] = system: wheat (Triticum aestivum); experiment: Test A postemergence, wheat; conditions: 0 to 100 scale (0 no effect, 100 complete control), approx. 10 d
Excerpt: as §1

[14] = system: ragweed (common ragweed, Ambrosia elatior); experiment: Test A postemergence, ragweed; conditions: 0 to 100 scale (0 no effect, 100 complete control), approx. 10 d
Excerpt: as §1

[15] = system: sedge, umbrella (small-flower umbrella sedge, Cyperus difformis); experiment: Test B flooded paddy test, umbrella sedge; conditions: Flood, 250 g ai/ha; applied to paddy water at 2-leaf stage; visual rating after 13 to 15 d; scale 0 to 100, 0 is no effect, 100 is complete control
Description: as §2

[16] = system: galium (catchweed bedstraw, Galium aparine); experiment: Test A postemergence, galium; conditions: 0 to 100 scale (0 no effect, 100 complete control), approx. 10 d
Excerpt: as §1

[17] = system: ryegrass, Italian (Italian ryegrass, Lolium multiflorum); experiment: Test A postemergence, Italian ryegrass; conditions: 0 to 100 scale (0 no effect, 100 complete control), approx. 10 d
Excerpt: as §1

[18] = system: pigweed (Amaranthus retroflexus); experiment: Test A preemergence, pigweed; conditions: 0 to 100 scale (0 no effect, 100 complete control), approx. 10 d
Excerpt: as §1

SMILES	Plant response rating, Pigweed ([1]; 31 g ai/ha)	Plant response rating, Pigweed ([1]; 125 g ai/ha)	Plant response rating, Barnyardgrass ([2]; 31 g ai/ha)	Plant response rating, Barnyardgrass ([2]; 125 g ai/ha)	Plant response rating, Kochia (kochia (Kochia scoparia) [3]; 31 g ai/ha)	Plant response rating, Kochia (kochia (Kochia scoparia) [3]; 125 g ai/ha)	Plant response rating, Corn (corn (Zea mays); 31 g ai/ha)	Plant response rating, Corn (corn (Zea mays); 125 g ai/ha)	Plant response rating, Ryegrass, Italian ([4]; 31 g ai/ha)	Plant response rating, Ryegrass, Italian ([4]; 125 g ai/ha)	Plant response rating, Barnyardgrass ([5]; 31 g ai/ha)	Plant response rating, Barnyardgrass ([5]; 125 g ai/ha)	Plant response rating, Kochia (kochia (Kochia scoparia) [6]; 31 g ai/ha)	Plant response rating, Kochia (kochia (Kochia scoparia) [6]; 125 g ai/ha)	Plant response rating, Barnyardgrass [7]	Plant response rating, Foxtail, Green ([8]; 31 g ai/ha)	Plant response rating, Foxtail, Green ([8]; 125 g ai/ha)	Plant response rating, Foxtail, Green ([9]; 31 g ai/ha)	Plant response rating, Foxtail, Green ([9]; 125 g ai/ha)	Plant response rating, Blackgrass ([10]; 31 g ai/ha)	also measured
CC(=O)[C@@]1(C(=O)Nc2cccc(F)c2F)C(=O)N(C)C[C@@H]1c1ccc(C(F)(F)F)cc1 [Compound 1, (3S,4R)-3-acetyl-N-(2,3-difluorophenyl)-1-methyl-2-oxo-4-[4-(trifluoromethyl)phenyl]-3-pyrrolidinecarboxamide]	30	80	80	90	40	80	20	80	30	60	70	90	20	70	70	50	90	90	90	0	Plant response rating, Blackgrass ([10]; 125 g ai/ha): 50; Plant response rating, Rice (rice (Oryza sativa)): 0; Plant response rating, Ducksalad [11]: 90; Plant response rating, Ragweed ([12]; 31 g ai/ha): 20; Plant response rating, Ragweed ([12]; 125 g ai/ha): 70; Plant response rating, Wheat ([13]; 31 g ai/ha): 20; Plant response rating, Wheat ([13]; 125 g ai/ha): 50; Plant response rating, Ragweed ([14]; 31 g ai/ha): 0; Plant response rating, Ragweed ([14]; 125 g ai/ha): 40; Plant response rating, Sedge, Umbrella [15]: 0; Plant response rating, Galium ([16]; 31 g ai/ha): 50; Plant response rating, Galium ([16]; 125 g ai/ha): 60; Plant response rating, Ryegrass, Italian ([17]; 31 g ai/ha): 60; Plant response rating, Ryegrass, Italian ([17]; 125 g ai/ha): 80; Plant response rating, Pigweed ([18]; 31 g ai/ha): 50; Plant response rating, Pigweed ([18]; 125 g ai/ha): 90
CC(=O)OC[C@@]1(C(=O)Nc2cccc(F)c2F)C(=O)N(C)C[C@@H]1c1ccc(C(F)(F)F)cc1 [Compound 2, (3S,4R)-3-[(acetyloxy)methyl]-N-(2,3-difluorophenyl)-1-methyl-2-oxo-4-[4-(trifluoromethyl)phenyl]-3-pyrrolidincarboxamide]	20	40	50	80	20	50	0	40	0	10	0	50	0	40	65	20	70	60	90	0	Plant response rating, Blackgrass ([10]; 125 g ai/ha): 10; Plant response rating, Rice (rice (Oryza sativa)): 30; Plant response rating, Ducksalad [11]: 95; Plant response rating, Ragweed ([12]; 31 g ai/ha): 0; Plant response rating, Ragweed ([12]; 125 g ai/ha): 30; Plant response rating, Wheat ([13]; 31 g ai/ha): 0; Plant response rating, Wheat ([13]; 125 g ai/ha): 20; Plant response rating, Ragweed ([14]; 31 g ai/ha): 0; Plant response rating, Ragweed ([14]; 125 g ai/ha): 40; Plant response rating, Sedge, Umbrella [15]: 0; Plant response rating, Galium ([16]; 31 g ai/ha): 0; Plant response rating, Galium ([16]; 125 g ai/ha): 40; Plant response rating, Ryegrass, Italian ([17]; 31 g ai/ha): 20; Plant response rating, Ryegrass, Italian ([17]; 125 g ai/ha): 50; Plant response rating, Pigweed ([18]; 31 g ai/ha): 20; Plant response rating, Pigweed ([18]; 125 g ai/ha): 80
CN1C[C@H](c2ccc(C(F)(F)F)cc2)[C@](CO)(C(=O)Nc2cccc(F)c2F)C1=O [Compound 4, (3S,4R)—N-(2,3-difluorophenyl)-3-(hydroxymethyl)-1-methyl-2-oxo-4-[4-(trifluoromethyl)phenyl]-3-pyrrolidinecarboxamide]	30	70	30	90	0	40	0	50	0	50	0	60	0	60	50	10	60	50	90	0	Plant response rating, Blackgrass ([10]; 125 g ai/ha): 40; Plant response rating, Rice (rice (Oryza sativa)): 0; Plant response rating, Ducksalad [11]: 95; Plant response rating, Ragweed ([12]; 31 g ai/ha): 0; Plant response rating, Ragweed ([12]; 125 g ai/ha): 0; Plant response rating, Wheat ([13]; 31 g ai/ha): 0; Plant response rating, Wheat ([13]; 125 g ai/ha): 20; Plant response rating, Ragweed ([14]; 31 g ai/ha): 0; Plant response rating, Ragweed ([14]; 125 g ai/ha): 0; Plant response rating, Sedge, Umbrella [15]: 0; Plant response rating, Galium ([16]; 31 g ai/ha): 20; Plant response rating, Galium ([16]; 125 g ai/ha): 40; Plant response rating, Ryegrass, Italian ([17]; 31 g ai/ha): 0; Plant response rating, Ryegrass, Italian ([17]; 125 g ai/ha): 50; Plant response rating, Pigweed ([18]; 31 g ai/ha): 0; Plant response rating, Pigweed ([18]; 125 g ai/ha): 90
CN1C[C@H](c2ccc(C(F)(F)F)cc2)[C@@](CO)(C(=O)Nc2cccc(F)c2F)C1=O [Compound 5, (3R,4R)—N-(2,3-difluorophenyl)-3-(hydroxymethyl)-1-methyl-2-oxo-4-[4-(trifluoromethyl)phenyl]-3-pyrrolidinecarboxamide]	30	50	80	90	0	60	0	60	10	80	30	80	30	70	65	30	80	70	90	0	Plant response rating, Blackgrass ([10]; 125 g ai/ha): 30; Plant response rating, Rice (rice (Oryza sativa)): 25; Plant response rating, Ducksalad [11]: 90; Plant response rating, Ragweed ([12]; 31 g ai/ha): 0; Plant response rating, Ragweed ([12]; 125 g ai/ha): 60; Plant response rating, Wheat ([13]; 31 g ai/ha): 0; Plant response rating, Wheat ([13]; 125 g ai/ha): 30; Plant response rating, Ragweed ([14]; 31 g ai/ha): 0; Plant response rating, Ragweed ([14]; 125 g ai/ha): 40; Plant response rating, Sedge, Umbrella [15]: 0; Plant response rating, Galium ([16]; 31 g ai/ha): 40; Plant response rating, Galium ([16]; 125 g ai/ha): 40; Plant response rating, Ryegrass, Italian ([17]; 31 g ai/ha): 20; Plant response rating, Ryegrass, Italian ([17]; 125 g ai/ha): 50; Plant response rating, Pigweed ([18]; 31 g ai/ha): 0; Plant response rating, Pigweed ([18]; 125 g ai/ha): 60
